# Values joined by “and” are separate entries in the source; they are usually repeats but may differ in a detail not shown here. Equal values may be shown once. “Also recorded” adds a separate entry of the source. Read-outs that look alike come from different tables or passages of the source.
# Key:
# TRPV1 [1] = target: TRPV1 (Rattus norvegicus, UniProt O35433); details: read-out: EC50 in Ca2+ influx assay, cited from earlier work
# [2] = literature; cited from earlier work
# OVCAR-8 = assay: Human cancer cell growth inhibition assay (ATP assay), OVCAR-8; format: cell-based; details: for IC50: Homo sapiens, OVCAR-8, 96 h, 4 days, Means±SEM from three independent experiments, read-out: OVCAR-8, IC50
# OVCAR-8 ovarian tumor = assay: OVCAR-8 intraperitoneal xenograft in athymic nude mice; format: in vivo
# Description: OVCAR-8 cells expressing red fluorescent protein were xenografted intraperitoneally in athymic nude mice to form tumors (Mol Cancer Ther 2020, 19, 89). After 4 weeks, mice were dosed with YB-1 or vehicle control (10% N-Methylpyrrolidone-72% PEG400—18% water) for 2 weeks (dosage: 5 mg/kg; ip treatment twice per week). As shown in FIGS. 16A-B, compared to vehicle group, animals treated with YB-1 for 2 weeks had 40% less tumor burden based on average radiant efficiency measured with IVIS and reduced approximately half of the body weight loss (7% average body weight loss for YB-1 treatment group vs. 13% average body weight loss for vehicle group).
# MDA-MB-231 = assay: Human cancer cell growth inhibition assay (ATP assay), MDA-MB-231; format: cell-based; details: for IC50: Homo sapiens, MDA-MB-231, 96 h, 4 days, Means±SEM from three independent experiments, read-out: MDA-MB-231, IC50
# human TRPA1 = target: T1, human TRPA1 (Homo sapiens, UniProt O75762); assay: In vitro Ca2+ flux counter-screen in human TRPA1 overexpressing cells; format: cell-based; details: counter-screen; read-out: TRPA1 EC50
# T1 construct: expressed in transfected cells; host or cells: overexpressing cells
# T1 sequence (O75762 whole entry): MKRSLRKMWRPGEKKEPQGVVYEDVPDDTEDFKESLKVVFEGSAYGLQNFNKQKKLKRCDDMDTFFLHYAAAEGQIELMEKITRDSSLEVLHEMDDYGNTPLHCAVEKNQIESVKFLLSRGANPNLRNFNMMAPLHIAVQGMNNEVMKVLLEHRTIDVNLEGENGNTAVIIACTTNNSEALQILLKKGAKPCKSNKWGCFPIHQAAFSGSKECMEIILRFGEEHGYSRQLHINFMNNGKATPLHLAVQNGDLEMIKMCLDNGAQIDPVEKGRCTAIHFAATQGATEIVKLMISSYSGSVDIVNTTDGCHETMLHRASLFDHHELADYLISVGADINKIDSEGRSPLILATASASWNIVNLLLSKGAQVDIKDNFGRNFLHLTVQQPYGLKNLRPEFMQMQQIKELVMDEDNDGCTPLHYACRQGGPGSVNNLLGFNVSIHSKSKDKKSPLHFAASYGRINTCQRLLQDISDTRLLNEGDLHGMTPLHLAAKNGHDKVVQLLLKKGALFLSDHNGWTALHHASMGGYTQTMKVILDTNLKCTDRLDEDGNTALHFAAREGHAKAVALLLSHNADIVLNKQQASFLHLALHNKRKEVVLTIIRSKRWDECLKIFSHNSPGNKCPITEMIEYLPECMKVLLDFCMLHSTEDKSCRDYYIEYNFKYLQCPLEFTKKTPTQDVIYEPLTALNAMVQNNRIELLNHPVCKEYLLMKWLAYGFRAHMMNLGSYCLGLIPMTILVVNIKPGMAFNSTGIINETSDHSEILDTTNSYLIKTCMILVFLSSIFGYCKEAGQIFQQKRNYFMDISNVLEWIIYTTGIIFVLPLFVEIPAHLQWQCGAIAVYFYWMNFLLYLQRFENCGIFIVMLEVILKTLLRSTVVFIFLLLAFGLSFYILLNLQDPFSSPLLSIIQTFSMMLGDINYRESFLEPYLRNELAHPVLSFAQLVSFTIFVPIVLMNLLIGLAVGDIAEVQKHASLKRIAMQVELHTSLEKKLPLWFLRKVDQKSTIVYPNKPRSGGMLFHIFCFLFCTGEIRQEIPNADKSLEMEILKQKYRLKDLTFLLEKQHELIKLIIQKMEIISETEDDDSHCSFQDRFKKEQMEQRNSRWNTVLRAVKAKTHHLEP
# OVCAR-8 cell invasion = assay: Cancer cell invasion assay, OVCAR-8; format: cell-based, human
# Description: (§1) A cancer cell invasion assay was developed based on literature protocols (Methods 2005, 37, 208; EMBO J 2002, 21, 6289; Cellular Signalling 2012, 24, 1276.). Membrane matrix gel (Cat #A1413201, ThermoFisher) was diluted in ice-cold, serum-free RPMI 1640 Medium (Cat #31800022, ThermoFisher) at a concentration of 0.5-0.6 mg/mL. Then it was added to the upper compartment (100 μL per cup) of millicell inserts (Cat #PI8P01250, ThermoFisher) placed in a 24-well plate (Part no. 229123, Celltreat). The plate was incubated at 37° C. for 2 h to allow the liquid gel to solidify. RPMI 1640 Medium supplemented with 10% FBS (300 μL) was added to the well of the plate (lower compartment) as attractant, then DMSO or compounds were added. Human cancer cells (1×10^5 cells in 200 μL of RPMI 1640 Medium) were added to the upper compartment of the insert, then DMSO or compounds were added. After the plate was incubated at 37° C. for 24 h, the cells were fixed on the lower side of the insert membrane with 4% formaldehyde and stained with 1% crystal violet (Part no. IS12146, Innovating Science). The invaded cells on the lower side of the filter were counted under an inverted microscope equipped with either a 4× or a 10× objective (FIG. 11). The cell numbers from 5 random views were averaged and plotted as percentage against the DMSO control (FIG. 12A).
# human TRPV3 = target: T2, human TRPV3 (Homo sapiens, UniProt Q8NET8); assay: In vitro Ca2+ flux counter-screen in human TRPV3 overexpressing cells; format: cell-based; details: counter-screen; read-out: TRPV3 EC50
# T2 construct: expressed in transfected cells; host or cells: overexpressing cells
# T2 sequence (Q8NET8 1-790): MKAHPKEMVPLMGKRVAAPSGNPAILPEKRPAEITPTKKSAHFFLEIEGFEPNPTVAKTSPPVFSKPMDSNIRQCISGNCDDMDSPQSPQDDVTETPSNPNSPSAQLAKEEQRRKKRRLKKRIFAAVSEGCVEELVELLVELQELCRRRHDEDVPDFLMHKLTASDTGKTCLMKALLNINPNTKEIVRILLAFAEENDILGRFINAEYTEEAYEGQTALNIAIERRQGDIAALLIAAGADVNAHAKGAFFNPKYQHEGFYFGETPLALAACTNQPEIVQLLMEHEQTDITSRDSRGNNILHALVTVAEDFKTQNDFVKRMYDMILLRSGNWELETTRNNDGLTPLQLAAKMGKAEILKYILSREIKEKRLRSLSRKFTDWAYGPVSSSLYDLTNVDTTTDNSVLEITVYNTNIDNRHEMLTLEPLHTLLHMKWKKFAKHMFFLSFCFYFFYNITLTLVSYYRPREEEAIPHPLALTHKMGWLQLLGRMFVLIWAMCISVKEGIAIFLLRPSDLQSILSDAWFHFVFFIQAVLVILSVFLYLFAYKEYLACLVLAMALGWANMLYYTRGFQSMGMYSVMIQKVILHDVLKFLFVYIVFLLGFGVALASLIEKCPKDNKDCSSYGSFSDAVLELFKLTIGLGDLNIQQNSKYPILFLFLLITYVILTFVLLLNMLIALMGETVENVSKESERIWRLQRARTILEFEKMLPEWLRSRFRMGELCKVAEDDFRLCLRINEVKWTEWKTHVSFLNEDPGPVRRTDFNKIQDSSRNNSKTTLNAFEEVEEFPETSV
# NCI-H460 cell invasion = assay: Cancer cell invasion assay, NCI-H460; format: cell-based, human
# Description: as §1
# [3] = test system: Src protein activation in NCI-H460 cells; assay: Cancer cell immunocytochemistry assay, Phospho-Src (Y416), NCI-H460; format: cell-based, human
# Description: (§2) Human cancer cells (15,000 cells/well) in 96 well half area microplate (Cat #3882, Corning) were incubated overnight at 37° C., then compounds or DMSO control were added to the cell culture and incubated at 37° C. for 1-6 h. The cells were sequentially fixed with 4% formalin, permeabilized with 0.5% Triton X-100, blocked with 5% BSA in PBS, incubated with Human Phospho-Src (Y416) Antibody (Cat #MAB2685, R&D Systems) at rt for 2 h, incubated with the secondary antibody Goat Ant-Rabbit IgG H&L (Alexa Fluor 488) (Cat #ab150077, abeam) for 45 min, and incubated with DAPI (Cat #D9542, Sigma-Aldrich) for 5 min. Finally, the cells were washed and covered with PBS. The cell images were visualized on an inverted fluorescence microscope (Leica DMIL Fluorescent Inverted Microscope with Digital Camera, Leica Microsystems). Pictures were taken [FIGS. 14A-C. Green: Human Phospho-Src (Y416), the activated form of the Src protein; Blue: DAPI (stain nucleus of cell)]. The fluorescence intensity values from 5 random cells were averaged, subtracted by the background value (area between cells) and the blank value [the blank control without the Human Phospho-Src (Y416) Antibody], then plotted as percentage against the DMSO control to indicate the effects of compound treatment on the cellular Src kinase phosphorylation levels in the cancer cells (FIGS. 15A-D).
# [4] = test system: Src protein activation in OVCAR-8 cells; assay: Cancer cell immunocytochemistry assay, Phospho-Src (Y416), OVCAR-8; format: cell-based, human
# Description: as §2
# NCI-H460 = assay: Human cancer cell growth inhibition assay (ATP assay), NCI-H460; format: cell-based; details: for IC50: Homo sapiens, NCI-H460, 96 h, 4 days, Means±SEM from three independent experiments, read-out: NCl-H460, IC50
# MDA-MB-231 cell invasion = assay: Cancer cell invasion assay, MDA-MB-231; format: cell-based, human; details: for inhibition of MDA-MB-231 cell invasion: 24 h
# Description: as §1
# [5] = test system: Src protein activation in MDA-MB-231 cells; assay: Cancer cell immunocytochemistry assay, Phospho-Src (Y416), MDA-MB-231; format: cell-based, human
# Description: as §2
# human TRPV1 = target: T3, human TRPV1 (Homo sapiens, UniProt Q8NER1); assay: In vitro Ca2+ flux assay in human TRPV1 transfected HEK 293 cells; format: cell-based; details: Means±SEM from three independent experiments; read-out: TRPV1 EC50
# T3 construct: DYK (FLAG) tag from vector pcDNA3.1+/C-(K)DYK (C); host or cells: FreeStyle 293-F cells (HEK 293), transient transfection
# T3 sequence (Q8NER1 whole entry): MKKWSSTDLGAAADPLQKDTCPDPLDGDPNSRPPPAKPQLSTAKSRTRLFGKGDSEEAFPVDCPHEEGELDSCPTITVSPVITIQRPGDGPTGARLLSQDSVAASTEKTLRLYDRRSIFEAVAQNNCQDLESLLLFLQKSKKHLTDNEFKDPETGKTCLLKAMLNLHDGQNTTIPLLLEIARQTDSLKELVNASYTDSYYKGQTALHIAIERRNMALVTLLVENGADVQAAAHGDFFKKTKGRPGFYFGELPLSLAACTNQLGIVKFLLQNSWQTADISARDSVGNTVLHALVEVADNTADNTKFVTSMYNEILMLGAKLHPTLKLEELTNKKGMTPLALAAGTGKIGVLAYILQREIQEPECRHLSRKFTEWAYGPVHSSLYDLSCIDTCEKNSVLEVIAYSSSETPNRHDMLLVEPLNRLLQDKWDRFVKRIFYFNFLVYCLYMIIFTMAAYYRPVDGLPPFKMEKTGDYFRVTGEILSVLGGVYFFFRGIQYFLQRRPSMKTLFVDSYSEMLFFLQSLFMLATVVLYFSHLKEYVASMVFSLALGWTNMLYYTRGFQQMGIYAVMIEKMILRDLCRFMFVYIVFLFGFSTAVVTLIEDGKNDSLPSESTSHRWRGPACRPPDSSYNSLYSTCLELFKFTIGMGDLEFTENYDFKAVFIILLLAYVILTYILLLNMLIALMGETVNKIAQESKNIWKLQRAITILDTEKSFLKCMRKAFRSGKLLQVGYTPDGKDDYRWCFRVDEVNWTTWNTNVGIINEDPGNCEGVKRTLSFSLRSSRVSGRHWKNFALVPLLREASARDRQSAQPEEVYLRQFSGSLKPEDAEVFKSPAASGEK
# [6] = intraplantar
# TRPV1 [7] = target: T4, TRPV1 (Mus musculus, UniProt Q704Y3); assay: Ca2+ imaging of primary mouse dorsal root ganglion (DRG) neurons, TRPV1 desensitization; format: cell-based; details: then capsaicin 0.5 μM
# T4 construct: DRG was isolated from male and female mice expressing GCaMP6f in neurons; endogenous in cells; host or cells: dissociated primary DRG neurons from GCaMP6f-expressing mice
# T4 sequence (Q704Y3 whole entry): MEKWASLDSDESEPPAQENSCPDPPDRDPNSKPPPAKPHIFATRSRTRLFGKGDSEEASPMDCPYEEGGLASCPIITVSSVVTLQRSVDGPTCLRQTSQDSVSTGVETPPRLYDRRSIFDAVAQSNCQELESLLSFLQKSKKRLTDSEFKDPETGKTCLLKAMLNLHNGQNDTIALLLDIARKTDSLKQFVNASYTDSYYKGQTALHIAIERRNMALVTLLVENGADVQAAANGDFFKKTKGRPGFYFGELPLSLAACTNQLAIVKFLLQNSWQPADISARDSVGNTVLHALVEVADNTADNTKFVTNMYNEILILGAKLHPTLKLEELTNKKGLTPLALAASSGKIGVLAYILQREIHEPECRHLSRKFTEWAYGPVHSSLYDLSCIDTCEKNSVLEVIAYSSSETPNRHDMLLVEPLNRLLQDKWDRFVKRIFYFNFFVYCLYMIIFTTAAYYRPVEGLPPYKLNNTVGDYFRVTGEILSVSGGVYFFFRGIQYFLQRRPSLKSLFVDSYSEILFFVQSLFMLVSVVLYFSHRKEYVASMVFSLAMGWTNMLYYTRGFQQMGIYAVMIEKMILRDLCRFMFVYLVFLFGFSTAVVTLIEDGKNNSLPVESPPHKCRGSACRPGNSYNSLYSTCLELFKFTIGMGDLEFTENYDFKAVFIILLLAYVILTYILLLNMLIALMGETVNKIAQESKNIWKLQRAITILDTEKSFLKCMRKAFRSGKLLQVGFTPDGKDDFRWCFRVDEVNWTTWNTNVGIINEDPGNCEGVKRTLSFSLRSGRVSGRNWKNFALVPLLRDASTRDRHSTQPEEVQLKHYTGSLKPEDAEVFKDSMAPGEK
# [8] = both, mouse, in vivo, 1 min
# [9] = 5 mg/kg ip twice per week for 2 weeks
# [10] = YB-1 15 μM, capsaicin 50 μM, 1-6 h
# [11] = first treatment capsaicin 0.5 μM, YB-11 0.5 μM or YB-16 1.0 μM, paired t-test
# TRPV1 (Rattus norvegicus, UniProt O35433), sequence (O35433 whole entry): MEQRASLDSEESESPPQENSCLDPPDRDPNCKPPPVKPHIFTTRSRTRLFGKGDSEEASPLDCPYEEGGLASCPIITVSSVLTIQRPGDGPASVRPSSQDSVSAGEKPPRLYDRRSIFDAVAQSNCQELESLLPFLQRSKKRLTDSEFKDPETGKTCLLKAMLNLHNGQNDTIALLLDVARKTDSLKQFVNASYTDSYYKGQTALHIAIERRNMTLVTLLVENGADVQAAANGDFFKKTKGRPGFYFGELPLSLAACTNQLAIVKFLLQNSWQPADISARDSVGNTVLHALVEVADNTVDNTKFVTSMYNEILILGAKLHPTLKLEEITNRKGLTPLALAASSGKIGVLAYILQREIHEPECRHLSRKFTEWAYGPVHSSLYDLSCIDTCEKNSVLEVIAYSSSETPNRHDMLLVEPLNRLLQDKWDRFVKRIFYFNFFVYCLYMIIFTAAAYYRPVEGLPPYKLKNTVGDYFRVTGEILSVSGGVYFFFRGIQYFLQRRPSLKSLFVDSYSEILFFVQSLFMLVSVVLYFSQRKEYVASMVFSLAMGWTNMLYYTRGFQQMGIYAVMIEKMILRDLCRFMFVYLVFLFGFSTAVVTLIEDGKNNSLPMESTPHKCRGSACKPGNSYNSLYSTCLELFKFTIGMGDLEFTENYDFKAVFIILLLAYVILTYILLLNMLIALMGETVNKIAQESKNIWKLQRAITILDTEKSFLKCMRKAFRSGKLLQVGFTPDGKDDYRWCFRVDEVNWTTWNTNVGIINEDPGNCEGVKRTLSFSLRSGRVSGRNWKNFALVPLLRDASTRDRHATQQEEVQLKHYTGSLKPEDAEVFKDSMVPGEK
structure (smiles),measurement,setting,value
CCCCCCCCC(=O)NCc1ccc(N)c(OC)c1 [N-[(4-amino-3-methoxyphenyl)methyl]-Nonanamide],EC50,TRPV1 [1]; as reported in literature,> 10 µM
"C=C(C)[C@]12C[C@@H](C)[C@@]34O[C@](Cc5ccccc5)(O[C@@H]1[C@@H]3C=C(COC(=O)Cc1ccc(O)c(OC)c1)C[C@]1(O)C(=O)C(C)=C[C@@H]41)O2 [Resiniferatoxin (RTX), Resiniferatoxin]",solubility in water,[2],insoluble in water
COc1cc(CNC(=O)CCCC/C=C/C(C)C)ccc1NC(=O)CCCC/C=C/C(C)C [YB-1],IC50,OVCAR-8,38 µM
same,potency in growth inhibition compared to capsaicin,OVCAR-8; OVACR-8 cell line,6 fold
same,average body weight loss,OVCAR-8 ovarian tumor; [9],7%
same,"less tumor burden compared to vehicle group (average radiant efficiency, IVIS)",OVCAR-8 ovarian tumor; [9],40%
same,tumor burden in vivo,OVCAR-8 ovarian tumor; FIG. 16,reduces tumor burden in vivo
same,IC50,MDA-MB-231,38 µM
same,potency in growth inhibition compared to capsaicin,MDA-MB-231; MDA-MB-231 cell line,10 fold
same,EC50,human TRPA1,> 10 µM
same,inhibition of OVCAR-8 cell invasion,OVCAR-8 cell invasion; 24 h,dose-dependently inhibited
same,potency in inhibiting cell invasion compared to capsaicin,OVCAR-8 cell invasion; OVCAR-8,~3 fold
same,EC50,human TRPV3,> 10 µM
same,inhibition of NCI-H460 cell invasion,NCI-H460 cell invasion; 24 h,dose-dependently inhibited
same,potency in inhibiting cell invasion compared to capsaicin,NCI-H460 cell invasion; NCI-H460,~10 fold
same,potency in inhibiting Src protein activation compared to capsaicin,[3],at least 3 fold
same,cellular Src kinase phosphorylation levels,[3]; [10],time-dependently reduced the cellular Src kinase phosphorylation levels
same,potency in inhibiting Src protein activation compared to capsaicin,[4],at least 3 fold
same,cellular Src kinase phosphorylation levels,[4]; [10],time-dependently reduced the cellular Src kinase phosphorylation levels
same,IC50,NCI-H460,11 µM
same,potency in growth inhibition compared to capsaicin,NCI-H460; NCI-H460 cell line,18 fold
same,inhibition of MDA-MB-231 cell invasion,MDA-MB-231 cell invasion,dose-dependently inhibited
same,potency in inhibiting cell invasion compared to capsaicin,MDA-MB-231 cell invasion; MDA-MB-231,about 4 fold
same,potency in inhibiting Src protein activation compared to capsaicin,[5],at least 3 fold
same,cellular Src kinase phosphorylation levels,[5]; [10],time-dependently reduced the cellular Src kinase phosphorylation levels
COc1cc(CC(=O)N/C=C/c2ccc(C(F)(F)F)cc2)ccc1O [YB-11],IC50,OVCAR-8,65 µM
same,EC50,human TRPV1,< 0.1 µM and 0.012 to 0.048 µM and 0.012 µM
same,IC50,MDA-MB-231,129 ± 21 µM
same,animal death and sedation in formalin test,[6],"No mice treated with YB-16, YB-11 or YB-2 died or experienced sedative reaction"
same,reduction of formalin first phase behavior,"[6]; 10 g, 2 hr prior to formalin",36%
same,EC50,human TRPA1,> 10 µM
same,TRPV1-sensitive neurons showing desensitization,TRPV1 [7]; first treatment 0.5 μM,67%
same,area under the curve of the Ca2+ signal of the second (capsaicin) application,TRPV1 [7]; [11],statistically significant reduction; also recorded: significantly reduced
same,max Ca2+ signal of the second (capsaicin) application,TRPV1 [7]; [11],statistically significant reduction; also recorded: significantly reduced
same,EC50,human TRPV3,> 10 µM
same,MPP,[8],0.101 mg/mL
same,IC50,NCI-H460,87 ± 10 µM
same,inhibition of MDA-MB-231 cell invasion,MDA-MB-231 cell invasion,dose-dependently inhibited
COc1cc(CN(C)C(=O)CCCCC=CC(C)C)ccc1O [capsaicin analog 3d],EC50,TRPV1 [1],> 100 µM
